The values below come from patent publication US11407647B2, “Synthetic caustic composition” (FLUID ENERGY GROUP LTD., priority 2017, dated 2022).

Each structure is given as a SMILES string. Where two headings read alike, the source gives them in different places.

The nature of data set [1]: Freezing point of caustic solutions. It counts as physicochemical.
For data set [2], the system named is human skin. To be noted: in vivo.
The conditions of data set [3]: background statement on sodium hydroxide solutions, cited from earlier work.

With `[Na+].[OH-]` [25 wt % NaOH, sodium hydroxide], the freezing point in data set [1] is −18 °C. In addition, the “effect on human skin” value in data set [2] is listed as “immediate burning of the skin, followed with scarring”. Besides, the “freeze point (begins to freeze / will freeze)” value in data set [3] (listed as 25% solution) is on record as −17 Celsius.
As for `[Na+].[OH-]` [50% sodium hydroxide solution, sodium hydroxide], the “freeze point (begins to freeze / will freeze)” value in data set [3] is reported as 14 Celsius.
